Assay [1] concerns the target T1, PTPN9 (Homo sapiens, UniProt P43378).
T1 construct: made in house; host or cells: Escherichia coli Rosetta (DE3)
T1 sequence (P43378 277-581): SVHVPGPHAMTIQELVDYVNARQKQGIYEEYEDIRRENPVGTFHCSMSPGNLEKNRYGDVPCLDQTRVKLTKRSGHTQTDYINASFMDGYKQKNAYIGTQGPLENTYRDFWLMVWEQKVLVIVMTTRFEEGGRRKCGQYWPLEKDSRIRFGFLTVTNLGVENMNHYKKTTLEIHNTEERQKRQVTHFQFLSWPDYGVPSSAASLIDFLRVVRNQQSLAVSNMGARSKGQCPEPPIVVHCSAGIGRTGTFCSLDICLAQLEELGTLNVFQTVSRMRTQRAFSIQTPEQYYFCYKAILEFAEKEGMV
Briefly: PTPN9 enzyme inhibition with DiFMUP substrate. The conditions noted are these: DiFMUP 220 µM, PTPN9 0.15 nM; NA: no activity. It is filed as biochemical. As for the experimental part: (§1) The purification and kinetic analyses of PTPN9 and DUSP9 (Ser277–581) were performed following methods described in the literature, with slight modifications. PAGE analysis data and enzyme kinetic constants are presented in Figure S1 and Table S1, respectively. Enzyme activity in the presence or absence of the compounds was measured using DiFMUP, a representative PTP fluorogenic substrate. First, the inhibitory effects of compounds 1–3 were evaluated using 50 µM PTPN9 and 20 µM DUSP9. There was an increase in the inhibitory activity of compound 1 for both enzymes as the number of CH2 units increased from 9 to 14 (Figure 2A,B).
(§2) Next, the IC50 values of the compounds, which induce a 50% inhibition of DiFMUP hydrolytic enzyme activity, were determined (Table 1). The IC50 values were determined from the dose–response enzyme inhibition curves of each compound. The dose–response curves for compounds 1e and 1f against PTPN9 and DUSP9, respectively, are presented in Figure 2C,D. Dose–response curves were also obtained for the other compounds (Figures S2 and S3).
(§3) The methods employed for PTP overexpression and purification have been described in a previous study. In brief, human PTPN9 and DUSP9 were cloned into a pET28a vector (Merk Millipore, Darmstadt, Germany) containing a hexahistidine (His6) tag or a maltose-binding protein (MBP) tag in its N-terminus (see Supplementary Materials). Recombinant genes were separately transformed into Escherichia coli Rosetta (DE3) (Merk Millipore, Darmstadt, Germany), and the overexpression of each gene was induced via the addition of 0.1 mM IPTG (Ducherfa Biochemie, Haarlem, RV, USA). After 16 h of incubation at 18 °C, cell pellets were obtained via centrifugation (3570× g at 4 °C for 15 min), resuspended in lysis buffer (50 mM Tris, pH: 7.5, 500 mM NaCl, 5% glycerol, 0.025% 2-mercaptoethanol, and 1 mM phenyl-methylsulfonyl fluoride (PMSF)), and lysed by ultrasonication. Subsequently, cell lysates were centrifuged at 29,820× g for 30 min at 4 °C; then, the supernatant was collected and incubated with a cobalt affinity resin (TALON® Metal Affinity Resin, Takara Korea, Seoul, Korea). After 1 h of incubation at 4 °C, the desired proteins were eluted by adding the lysis buffer supplemented with 100 mM imidazole. Samples were stored at –80 °C until use.
(§4) The enzymatic activities of purified PTPN9 and DUSP9 were measured using 6,8-difluoro-4-methylumbelliferyl phosphate (DiFMUP), the most widely used fluorogenic PTP substrate in the literature. To determine KM values, PTPN9 (0.15 nM) and DUSP9 (200 nM) were added to a reaction buffer (20 mM Bis-tris, pH: 7.0, 150 mM NaCl, 2.5 mM dithiothreitol (DTT), and 0.01% Triton X-100) containing DiFMUP (800, 400, 200, 100, 50, 25, 12.5, or 6.25 μM) in a 96-well black plate. The final reaction volume was 100 µL. The fluorescence intensity was continuously monitored for 10 min (Ex/Em = 355/460 nm) on a Victor™ X4 multilabel plate reader (Perkin Elmer, Norwalk, CT, USA). KM values were obtained using Lineweaver–Burk plots analysis.
(§5) To evaluate the enzyme inhibitory effects of GA and its analogs, 10 µl of the enzyme stock solution (1.5 nM PTPN9 and 2 µM DUSP9) in the reaction buffer was added into the mixture of DiFMUP (to a final concentration of 220 µM and 90 µM for PTPN9 and DUSP9, respectively) and each compound (to a final concentration of 50 µM and 20 µM for PTPN9 and DUSP9, respectively) was added to the reaction buffer. Enzyme activity was measured as described above. Half-inhibitory concentration (IC50) values were determined under similar conditions, except for the concentrations of the inhibitors (200, 100, 50, 25, 12.5, 6.25, or 3.125 µM for PTPN9 and 25, 12.5, 6.25, 3.125, 1.563, 0.782, or 0.391 µM for DUSP9). The dose-dependent curve was fitted to the four-parameter logistic regression equation, (y = a + (b – a)/(1 + (x/c)^d), to obtain IC50 values using the Kaleida Graph software Ver. 4.1.3. (Synergy Software Inc, PA, USA).

For assay [2], the target named is T2, DUSP9 (Homo sapiens, UniProt Q99956).
T2 construct: made in house; host or cells: Escherichia coli Rosetta (DE3)
T2 sequence (Q99956 1-384): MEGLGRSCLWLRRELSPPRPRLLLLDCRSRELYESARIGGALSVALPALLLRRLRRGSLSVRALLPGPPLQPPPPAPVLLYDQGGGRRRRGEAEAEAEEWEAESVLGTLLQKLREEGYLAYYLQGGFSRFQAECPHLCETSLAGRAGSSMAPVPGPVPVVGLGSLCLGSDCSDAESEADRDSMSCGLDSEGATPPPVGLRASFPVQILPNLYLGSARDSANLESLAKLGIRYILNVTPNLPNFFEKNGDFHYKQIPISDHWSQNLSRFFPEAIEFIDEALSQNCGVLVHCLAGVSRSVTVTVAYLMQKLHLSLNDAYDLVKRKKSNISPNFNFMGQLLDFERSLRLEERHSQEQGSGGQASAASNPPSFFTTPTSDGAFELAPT
Briefly: DUSP9 enzyme inhibition with DiFMUP substrate. It is filed as biochemical. Particulars: DiFMUP 90 µM, DUSP9 200 nM; NA: no activity. As for the experimental part: as §1, §2, §3, §4, §5

In assay [3] the target is T1, PTPN9. The experiment in a line: Kinetics of DiFMUP hydrolysis by PTPN9. The conditions noted are these: [E] 0.15 nM. The assay is classed as biochemical. As for the experimental part: (§6) The purification and kinetic analyses of PTPN9 and DUSP9 (Ser277–581) were performed following methods described in the literature, with slight modifications. […] Enzyme activity in the presence or absence of the compounds was measured using DiFMUP, a representative PTP fluorogenic substrate.
as §4

Assay [4] concerns the target T2, DUSP9. Briefly: Kinetics of DiFMUP hydrolysis by DUSP9. It is filed as biochemical. The conditions noted are these: [E] 200.0 nM. The method, then:
as §6, §4

A further assay deals with 3T3-L1 adipocytes. The experiment in a line: 2-NBDG glucose uptake assay in differentiated 3T3-L1 adipocytes. Particulars: 100 nM. It is filed as cell-based, mouse. The method, then: PTPN9 inhibitors have been reported to increase glucose uptake. To clarify the antidiabetic effects of GA analogs, a 2-NBDG (a fluorescent glucose probe) uptake assay was performed using differentiated 3T3-L1 adipocytes and C2C12 myotubes. After 16 h of starvation, differentiated 3T3-L1 adipocytes were incubated with compounds 1e and 1f for another 1 h. The cells were subsequently incubated with 2-NBDG for 30 min and washed with PBS before quantifying the fluorescence of 2-NBDG taken up by the cells. The 2-NBDG uptake-increasing effects of GA and its analogs in 3T3-L1 cells were monitored via confocal microscopy. The blank group was set in the absence of 2-NBDG but was treated with DMSO to determine the basal fluorescence levels in 3T3-L1 adipocytes (Figure 4A, Basal); in the negative control group, 3T3-L1 adipocytes were treated with 2-NBDG and DMSO for the evaluation of basal glucose uptake levels (Figure 4A, DMSO). […] Furthermore, to quantify 2-NBDG uptake, fluorescence intensity (Ex/Em = 485/535 nm) was measured using a plate reader. […] After incubation, the cells were washed with pre-cold PBS, and the fluorescence intensity was measured using a fluorescence microplate reader (Victor^TM X4, PerkinElmer, Waltham, MA, USA) (Ex/Em = 485/535 nm). […]

Usually IC50 stands for the midpoint of a concentration-inhibition curve. Usually Km stands for the concentration of substrate that gives half-maximal velocity. A word on the kcat: it is the number of substrate molecules converted per active site and unit of time at saturation.

For the compound `CCCCCCCCCCCOc1cccc(O)c1C(=O)O` [Compound 1c], the IC50 at PTPN9 [1] was 77.1 ± 0.78 µM; on DUSP9 [2], 23.9 ± 0.65 µM.
In the case of `CCCCCCCCCCCCOc1cccc(O)c1C(=O)O` [Compound 1d], the IC50 on PTPN9 [1] came to 28.54 ± 0.1 µM; on DUSP9 [2], 8.61 ± 0.66 µM.
For `CCCCCCCCCCCCCOc1ccc(C(=O)O)c(O)c1` [Compound 2], in that order: 69.3 ± 6.22 µM and 5.27 ± 0.07 µM.
For `CCCCCCCCCCCCCOc1ccc(O)c(C(=O)O)c1` [Compound 3], in that order: 36.5 ± 1 µM and 4.68 ± 0.06 µM.
Turning to `Cc1cc(=O)oc2c(F)c(OP(=O)(O)O)c(F)cc12` [DiFMUP, 6,8-difluoro-4-methylumbelliferyl phosphate], at PTPN9 [3], the Km turned out to be 110 µM and the Vmax was determined as 1.73 μMmin-1. Moreover, on DUSP9 [4], the Michaelis-Menten constant (Km) is 45 µM, the Vmax is 1.65 μMmin-1 and the turnover number (kcat) is 0.138 s⁻¹.
For “Insulin: positive control (100 nM) in the 2-NBDG uptake assay”, the “2-NBDG uptake (positive control)” value with 3T3-L1 adipocytes is “significantly stimulated 2-NBDG uptake”.

These data come from paper PMC8999917, “Structure–Activity Relationship of Synthetic Ginkgolic Acid Analogs for Treating Type 2 Diabetes by PTPN9 Inhibition” (International Journal of Molecular Sciences, 2022).
